Data as given in patent publication US11180504B2 (ORCHID PHARMA LTD., priority 2016, dated 2021).
≈ marks a conversion by molar mass, not a printed value. Where two headings read alike, the source gives them in different places.

What was measured:
[1] = system: carbapenem sensitive Escherichia coli; experiment: MIC by broth micro-dilution (CLSI), carbapenem sensitive E. coli; type: cell-based
[2] = system: extended spectrum β lactamase (ESBL) SHV18 producing Klebsiella pneumoniae; experiment: MIC by broth micro-dilution (CLSI), ESBL SHV18 producing K. pneumoniae; type: cell-based; settings: ESBL +ve (SHV-18) K. pneumoniae ATCC700603
[3] = system: carbapenemase producing K. pneumoniae; experiment: MIC by broth micro-dilution (CLSI), carbapenemase producing K. pneumoniae; type: cell-based, Klebsiella pneumoniae
[4] = system: methicillin-sensitive Staphylococcus aureus; experiment: MIC by broth micro-dilution (CLSI), methicillin-sensitive S. aureus; type: cell-based; settings: MSSA S. aureus ATCC29213
[5] = system: carbapenem sensitive Pseudomonas aeruginosa; experiment: MIC by broth micro-dilution (CLSI), carbapenem sensitive P. aeruginosa; type: cell-based
[6] = Escherichia coli, ATCC25922, ESBL −ve E. coli ATCC25922, read-out: MIC
[7] = Klebsiella pneumoniae, ATCC700603, 22 h, read-out: MIC
[8] = Klebsiella pneumoniae, ATCCBAA1705, KPC-2 K. pneumoniae ATCC BAA-1705, read-out: MIC
[9] = Staphylococcus aureus, ATCC 29213 / MSSA, read-out: MIC
[10] = Pseudomonas aeruginosa, ATCC27853, Meropenem susceptible P. aeruginosa ATCC27853, read-out: MIC

Row | SMILES | MIC [1, 6] [µg/mL] | MIC [2, 7] [µg/mL] | MIC [3, 8] [µg/mL] | MIC [4, 9] [µg/mL] | MIC [5, 10] [µg/mL] | MIC ([1]; ESBL −ve E. coli ATCC25922) [µg/mL] | MIC [2] [µg/mL] | MIC ([3]; KPC-2 K. pneumoniae ATCC BAA-1705) [µg/mL] | MIC [4] [µg/mL] | MIC ([5]; Meropenem susceptible P. aeruginosa ATCC27853) [µg/mL]
1 | CC(C)C[C@H](N)C(=O)N[C@H](C)[C@H]1C(=O)N2C(C(=O)O)=C(S[C@@H]3CN[C@H](C(=O)N(C)C)C3)[C@H](C)[C@H]12 [Example 31] | 4 (≈ 8.07 µM) | 16 (≈ 32.3 µM) | 4 (≈ 8.07 µM) | 16 (≈ 32.3 µM) | > 128 |  |  |  |  | 
2 | C[C@@H](NC(=O)OCC(F)F)[C@H]1C(=O)N2C(C(=O)O)=C(S[C@@H]3CN[C@H](C(=O)N(C)C)C3)[C@H](C)[C@H]12 [Example 41] | 1 (≈ 2.04 µM) | 16 (≈ 32.6 µM) | 16 (≈ 32.6 µM) | 2 (≈ 4.08 µM) | > 128 |  |  |  |  | 
3 | C[C@@H](NC(=O)Cc1cccs1)[C@H]1C(=O)N2C(C(=O)O)=C(S[C@@H]3CN[C@H](C(=O)N(C)C)C3)[C@H](C)[C@H]12 [Example 5] | 8 (≈ 15.8 µM) | > 128 | > 128 | 8 (≈ 15.8 µM) | > 128 |  |  |  |  | 
4 | COc1coc(CNC(=O)[C@@H]2C[C@H](SC3=C(C(=O)O)N4C(=O)[C@H]([C@@H](C)NC(=O)C(F)F)[C@H]4[C@H]3C)CN2)cc1=O [Example 137] | 1 (≈ 1.75 µM) | 8 (≈ 14 µM) | 8 (≈ 14 µM) | 4 (≈ 7.01 µM) | > 128 |  |  |  |  | 
5 | C[C@@H](NC(=O)C(F)F)[C@H]1C(=O)N2C(C(=O)O)=C(S[C@@H]3CN[C@H](C(=O)N4CCNCC4)C3)[C@H](C)[C@H]12 [Example 120] | 0.5 (≈ 0.997 µM) | 4 (≈ 7.98 µM) | 4 (≈ 7.98 µM) | 2 (≈ 3.99 µM) | 4 (≈ 7.98 µM) |  |  |  |  | 
6 | C[C@@H](NS(C)(=O)=O)[C@H]1C(=O)N2C(C(=O)O)=C(S[C@@H]3CN[C@H](CNS(N)(=O)=O)C3)[C@H](C)[C@H]12 [Example 7] | 0.5 (≈ 1 µM) | 2 to 4 (≈ 4.02 to 8.04 µM) | 2 to 4 (≈ 4.02 to 8.04 µM) | 2 to 8 (≈ 4.02 to 16.1 µM) | 32 to 64 (≈ 64.3 to 129 µM) |  |  |  |  | 
7 | CNCC(=O)N[C@H](C)[C@H]1C(=O)N2C(C(=O)O)=C(S[C@@H]3CN[C@H](C(=O)N4CCNCC4)C3)[C@H](C)[C@H]12 [Example 168] | 1 (≈ 2.02 µM) | 2 (≈ 4.04 µM) | 2 (≈ 4.04 µM) | 16 (≈ 32.3 µM) | 2 (≈ 4.04 µM) |  |  |  |  | 
8 | C[C@@H](NC(=O)C(F)F)[C@H]1C(=O)N2C(C(=O)O)=C(S[C@@H]3CN[C@H](C(=O)N4CC[C@@H](F)C4)C3)[C@H](C)[C@H]12 [Example 209] | 0.5 (≈ 0.991 µM) | 2 (≈ 3.96 µM) | 2 (≈ 3.96 µM) | 2 (≈ 3.96 µM) | 64 (≈ 127 µM) |  |  |  |  | 
9 | CNCC(=O)N[C@@H](C)[C@H]1C(=O)N2C(C(=O)O)=C(S[C@H]3CN[C@H](C(=O)N4CC[C@@H](N)C4)C3)[C@H](C)[C@H]12 [Example 95, (4R,5S,6R)-3-((3R,5S)-5-((R)-3-aminopyrrolidine-1-carbonyl)pyrrolidin-3-ylthio)-4-methyl-6-((S)-1-(2-(methylamino)acetamido)ethyl)-7-oxo-1-azabicyclo[3.2.0]hept-2-ene-2-carboxylic acid] | 1 (≈ 2.02 µM) | 2 (≈ 4.04 µM) | 2 (≈ 4.04 µM) | 32 (≈ 64.7 µM) | 2 (≈ 4.04 µM) |  |  |  |  | 
10 | CNCC(=O)N[C@H](C)[C@H]1C(=O)N2C(C(=O)O)=C(S[C@@H]3CN[C@H](C(=O)N4CC[C@H](NC=N)C4)C3)[C@H](C)[C@H]12 [Example 199] | 1 (≈ 1.92 µM) | 4 (≈ 7.67 µM) | 2 (≈ 3.83 µM) | 32 (≈ 61.3 µM) | 4 (≈ 7.67 µM) |  |  |  |  | 
11 | C[C@@H](NC(=O)C(F)F)[C@H]1C(=O)N2C(C(=O)O)=C(S[C@@H]3CN[C@H](C(=O)N4CC[C@H](NC5CC5)C4)C3)[C@H](C)[C@H]12 [Example 170] | 1 (≈ 1.85 µM) | 4 (≈ 7.39 µM) | 8 (≈ 14.8 µM) | 2 (≈ 3.69 µM) | 32 (≈ 59.1 µM) |  |  |  |  | 
12 | C[C@@H](NC(=O)C(F)F)[C@H]1C(=O)N2C(C(=O)O)=C(S[C@@H]3CN[C@H](C(=O)N4CC[C@@H](N)C4)C3)[C@H](C)[C@H]12 [Example 124] | 1 (≈ 1.99 µM) | 4 (≈ 7.98 µM) | 4 (≈ 7.98 µM) | 2 (≈ 3.99 µM) | 4 (≈ 7.98 µM) |  |  |  |  | 
13 | C[C@@H](NS(=O)(=O)CC(F)(F)F)[C@H]1C(=O)N2C(C(=O)O)=C(S[C@@H]3CN[C@H](C(=O)N(C)C)C3)[C@H](C)[C@H]12 [Example 86] | 1 (≈ 1.89 µM) | 8 (≈ 15.1 µM) | 8 (≈ 15.1 µM) | 2 (≈ 3.78 µM) | 128 (≈ 242 µM) |  |  |  |  | 
14 | C[C@@H](NC(=O)C(F)F)[C@H]1C(=O)N2C(C(=O)O)=C(S[C@@H]3CN[C@H](C(=O)N4C[C@H](N)[C@@H](N)C4)C3)[C@H](C)[C@H]12 [Example 194] | 2 (≈ 3.87 µM) | 8 (≈ 15.5 µM) | 16 (≈ 31 µM) | 8 (≈ 15.5 µM) | 16 (≈ 31 µM) |  |  |  |  | 
15 | C[C@@H](NC(=O)C[S+]([O-])C(F)F)[C@H]1C(=O)N2C(C(=O)O)=C(S[C@@H]3CN[C@H](C(=O)N(C)C)C3)[C@H](C)[C@H]12 (mixture of isomers) [Example 82] | 1 | 2 | 8 | 8 | 128 |  |  |  |  | 
16 | C[C@@H](NC(=O)C(F)F)[C@H]1C(=O)N2C(C(=O)O)=C(S[C@@H]3CN[C@H](C(=O)N4CCC(N)CC4)C3)[C@H](C)[C@H]12 [Example 132] | 1 (≈ 1.94 µM) | 4 (≈ 7.76 µM) | 4 (≈ 7.76 µM) | 2 (≈ 3.88 µM) | 4 (≈ 7.76 µM) |  |  |  |  | 
17 | CO/N=C(\C)C(=O)N[C@H](C)[C@H]1C(=O)N2C(C(=O)O)=C(S[C@@H]3CN[C@H](C(=O)N(C)C)C3)[C@H](C)[C@H]12 [Example 54] | 8 (≈ 16.6 µM) | > 128 | > 128 | 1 (≈ 2.08 µM) | > 128 |  |  |  |  | 
18 | C[C@@H](NC(=O)C(F)F)[C@H]1C(=O)N2C(C(=O)O)=C(S[C@@H]3CN[C@H](C(=O)N4CC[C@H](NS(=O)(=O)CCN)C4)C3)[C@H](C)[C@H]12 [Example 133] | 1 (≈ 1.64 µM) | 4 (≈ 6.57 µM) | 8 (≈ 13.1 µM) | 4 (≈ 6.57 µM) | 8 (≈ 13.1 µM) |  |  |  |  | 
19 | C[C@H](N)C(=O)N[C@H](C)[C@H]1C(=O)N2C(C(=O)O)=C(S[C@@H]3CN[C@H](C(=O)N(C)C)C3)[C@H](C)[C@H]12 [Example 68] | 4 (≈ 8.82 µM) | 8 (≈ 17.6 µM) | > 128 | 32 (≈ 70.6 µM) | 32 to 64 (≈ 70.6 to 141 µM) |  |  |  |  | 
20 | C[C@@H](NC(=O)C(F)F)[C@H]1C(=O)N2C(C(=O)O)=C(SCCN)[C@H](C)[C@H]12 [Example 92] | 0.5 (≈ 1.38 µM) | 4 (≈ 11 µM) | 4 (≈ 11 µM) | 1 (≈ 2.75 µM) | 32 (≈ 88.1 µM) |  |  |  |  | 
21 | C[C@@H](NC(=O)[C@H](N)Cc1ccccc1)[C@H]1C(=O)N2C(C(=O)O)=C(S[C@@H]3CN[C@H](C(=O)N(C)C)C3)[C@H](C)[C@H]12 [Example 72] | 32 (≈ 60.4 µM) | > 128 | > 128 | 32 (≈ 60.4 µM) | > 128 |  |  |  |  | 
22 | C[C@@H](NC(=O)C(F)F)[C@H]1C(=O)N2C(C(=O)O)=C(S[C@@H]3CN[C@H](C(=O)N4CC[C@@H](F)C4)C3)[C@H](C)[C@H]12 [Example 210] |  |  |  |  |  | 1 (≈ 1.98 µM) | 4 (≈ 7.93 µM) | 4 (≈ 7.93 µM) | 2 (≈ 3.96 µM) | 64 (≈ 127 µM)
23 | C[C@@H](NC(=O)C(F)F)[C@H]1C(=O)N2C(C(=O)O)=C(S[C@@H]3CN[C@H](C(=O)N4CC[C@H](NC=N)C4)C3)[C@H](C)[C@H]12 [Example 184] | 0.5 (≈ 0.946 µM) | 4 (≈ 7.57 µM) | 8 (≈ 15.1 µM) | 2 (≈ 3.78 µM) | 4 (≈ 7.57 µM) |  |  |  |  | 
24 | C[C@@H](NC(=O)C(C)(F)F)[C@H]1C(=O)N2C(C(=O)O)=C(S[C@@H]3CN[C@H](C(=O)N(C)C)C3)[C@H](C)[C@H]12 [Example 61] | 1 (≈ 2.11 µM) | 16 (≈ 33.7 µM) | 16 (≈ 33.7 µM) | 1 (≈ 2.11 µM) | > 128 |  |  |  |  | 
25 | C[C@@H](NC(=O)C(F)F)[C@H]1C(=O)N2C(C(=O)O)=C(S[C@@H]3CN[C@H](C(=O)NCCC(=O)NCCO)C3)[C@H](C)[C@H]12 [Example 116] | 0.5 (≈ 0.913 µM) | 2 (≈ 3.65 µM) | 4 (≈ 7.3 µM) | 8 (≈ 14.6 µM) | > 128 |  |  |  |  | 
